The target in this experiment is Alpha-glucosidase MAL12 (Saccharomyces cerevisiae (strain ATCC 204508 / S288c), UniProt P53341). Put plainly: Alpha-glucosidase Inhibition Assay. The note with it: 37 °C. On the procedure:
A 100 µL assay mixture containing 70 µL phosphate buffer saline (50 mM at pH 6.8), 10 µL corresponding test compounds dissolved in methanol/DMSO (0.5 mM) and 10 µL (0.057 units) α-glucosidase enzyme were mixed, pre-incubated for 10 min at 37C and the abosrbance was recorded at 400 nm. The reaction was initiated by the addition of 10 µL p-nitrophenyl-α-D-glucopyranoside (substrate, 0.5 mM/well).
Alpha-glucosidase MAL12, sequence (P53341 whole entry): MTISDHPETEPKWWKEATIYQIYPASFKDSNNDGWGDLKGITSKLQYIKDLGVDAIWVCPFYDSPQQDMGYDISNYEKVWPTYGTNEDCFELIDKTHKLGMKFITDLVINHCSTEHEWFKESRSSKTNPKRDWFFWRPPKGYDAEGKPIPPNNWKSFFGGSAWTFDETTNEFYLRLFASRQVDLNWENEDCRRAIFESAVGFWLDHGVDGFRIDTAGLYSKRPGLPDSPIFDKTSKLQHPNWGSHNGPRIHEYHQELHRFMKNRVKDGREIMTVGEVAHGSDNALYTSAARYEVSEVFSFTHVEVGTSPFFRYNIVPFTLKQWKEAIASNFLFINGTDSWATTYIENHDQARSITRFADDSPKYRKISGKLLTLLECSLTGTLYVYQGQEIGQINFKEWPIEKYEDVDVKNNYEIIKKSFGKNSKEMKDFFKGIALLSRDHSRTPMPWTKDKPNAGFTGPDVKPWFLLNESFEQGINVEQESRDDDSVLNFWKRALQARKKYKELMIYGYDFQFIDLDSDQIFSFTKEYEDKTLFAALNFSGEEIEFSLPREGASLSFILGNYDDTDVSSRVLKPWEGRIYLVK
The term IC50 denotes the concentration needed to halve the response being measured. Read a high IC50 as a need for much substance. For `COc1cccc(-c2nc(-c3ccccc3)c(-c3ccccc3)[nH]2)c1`, the IC50 was 359 µM.

`Clc1ccc(-c2nc(-c3ccccc3)c(-c3ccccc3)[nH]2)cc1` returned an IC50 of 458 µM. The same measure for `Oc1ccccc1-c1nc(-c2ccccc2)c(-c2ccccc2)[nH]1`: 74.3 µM; for `COc1cccc(-c2nc(-c3ccccc3)c(-c3ccccc3)[nH]2)c1O` [2-(4,5-Diphenyl-1H-imidazol-2-yl)-6-methoxyphenol (3g)]: 107 µM; for `Oc1ccc(-c2nc(-c3ccccc3)c(-c3ccccc3)[nH]2)cc1` [SR-01000511510-2]: 97.1 µM.

These data come from BindingDB's records for doi:10.1016/j.bioorg.2014.11.006 (Comsats Institute of Information Technology, 2015).
